Measurements from ChEMBL document CHEMBL3885881, “DrugMatrix”.

Species: Rattus norvegicus
Test: DrugMatrix - Regimen: Daily Repeat
Format: toxicity, organism-based, Sprague-Dawley
Set-up: regimen Daily Repeat, gender Male, age 6-8 weeks
Conditions: in vivo, po, route oral GAVAGE, vehicle 100 % WATER; for NUCLEATED RED BLOOD CELLS / PLATELET COUNT / ABSOLUTE BASOPHIL / ABSOLUTE EOSINOPHIL / ABSOLUTE LYMPHOCYTE / ABSOLUTE MONOCYTE / ABSOLUTE SEGMENTED NEUTROPHIL / BASOPHIL / EOSINOPHIL / ERYTHROCYTE COUNT / HEMATOCRIT / LEUKOCYTE COUNT / LYMPHOCYTE / MEAN CORPUSCULAR HEMOGLOBIN / MEAN CORPUSCULAR HEMOGLOBIN CONCENTRATION / MEAN CORPUSCULAR VOLUME / MONOCYTE / NEUTROPHIL: tissue Blood; for ALANINE AMINOTRANSFERASE / ALBUMIN / ALKALINE PHOSPHATASE / ASPARTATE AMINOTRANSFERASE / BLOOD UREA NITROGEN / CARBON DIOXIDE / CHLORIDE / CHOLESTEROL / CREATINE PHOSPHOKINASE / CREATININE / LIPASE / POTASSIUM / TOTAL BILIRUBIN / TOTAL PROTEIN: tissue Plasma
[1] = 44 mg/kg, 120 h, dose level Low, time 5 day
[2] = 600 mg/kg, 72 h, dose level M1, time 3 day
[3] = 600 mg/kg, 120 h, dose level M1, time 5 day
[4] = 1200 mg/kg, 72 h, dose level High, time 3 day

NC(=O)c1ncn([C@@H]2O[C@H](CO)[C@@H](O)[C@H]2O)n1 [RIBAVIRIN]
NUCLEATED RED BLOOD CELLS [1]: 0 /100WBC | PLATELET COUNT [1]: 1248.67 x10E3/uL | ALANINE AMINOTRANSFERASE [1]: 43 u/L | ALBUMIN [1]: 4.37 G/DL | ALKALINE PHOSPHATASE [1]: 347 u/L | ASPARTATE AMINOTRANSFERASE [1]: 75.33 u/L | BLOOD UREA NITROGEN [1]: 13.67 mg/dL | CARBON DIOXIDE [1]: 26 mmol/L | CHLORIDE [1]: 102 MEQ/L | CHOLESTEROL [1]: 63 mg/dL | CREATINE PHOSPHOKINASE [1]: 230.67 u/L | CREATININE [1]: 0.16 mg/dL | LIPASE [1]: 8 u/L | POTASSIUM [1]: 6.69 MEQ/L | TOTAL BILIRUBIN [1]: 0.2 mg/dL | TOTAL PROTEIN [1]: 6 G/DL | ABSOLUTE BASOPHIL [2]: 0 CELLS/uL | ABSOLUTE EOSINOPHIL [2]: 216 CELLS/uL | ABSOLUTE LYMPHOCYTE [2]: 9535 CELLS/uL | ABSOLUTE MONOCYTE [2]: 0 CELLS/uL | ABSOLUTE SEGMENTED NEUTROPHIL [2]: 1715.67 CELLS/uL | BASOPHIL [2]: 0% | EOSINOPHIL [2]: 2% | ERYTHROCYTE COUNT [2]: 6.28 x10E6/uL | HEMATOCRIT [2]: 39.7% | LEUKOCYTE COUNT [2]: 11.47 x10E3/uL | LYMPHOCYTE [2]: 82.67% | MEAN CORPUSCULAR HEMOGLOBIN [2]: 23.53 pg | MEAN CORPUSCULAR HEMOGLOBIN CONCENTRATION [2]: 37.3 G/DL | MEAN CORPUSCULAR VOLUME [2]: 63.2 fL | MONOCYTE [2]: 0% | NEUTROPHIL [2]: 15.33% | NUCLEATED RED BLOOD CELLS [2]: 0 /100WBC | PLATELET COUNT [2]: 1269.33 x10E3/uL | ALANINE AMINOTRANSFERASE [2]: 185 u/L | ALBUMIN [2]: 3.7 G/DL | ALKALINE PHOSPHATASE [2]: 293.33 u/L | ASPARTATE AMINOTRANSFERASE [2]: 480 u/L | BLOOD UREA NITROGEN [2]: 16.33 mg/dL | CARBON DIOXIDE [2]: 16 mmol/L | CHLORIDE [2]: 104.33 MEQ/L | CHOLESTEROL [2]: 83 mg/dL | CREATINE PHOSPHOKINASE [2]: 1211.67 u/L | CREATININE [2]: 0.22 mg/dL | LIPASE [2]: 35 u/L | POTASSIUM [2]: 7.1 MEQ/L | TOTAL BILIRUBIN [2]: 0.2 mg/dL | TOTAL PROTEIN [2]: 5.33 G/DL | ABSOLUTE BASOPHIL [3]: 0 CELLS/uL | ABSOLUTE EOSINOPHIL [3]: 179.33 CELLS/uL | ABSOLUTE LYMPHOCYTE [3]: 10736 CELLS/uL | ABSOLUTE MONOCYTE [3]: 0 CELLS/uL | ABSOLUTE SEGMENTED NEUTROPHIL [3]: 2451.33 CELLS/uL | BASOPHIL [3]: 0% | EOSINOPHIL [3]: 1.33% | ERYTHROCYTE COUNT [3]: 6.48 x10E6/uL | HEMATOCRIT [3]: 40.57% | LEUKOCYTE COUNT [3]: 13.37 x10E3/uL | LYMPHOCYTE [3]: 81.33% | MEAN CORPUSCULAR HEMOGLOBIN [3]: 23.67 pg | MEAN CORPUSCULAR HEMOGLOBIN CONCENTRATION [3]: 37.87 G/DL | MEAN CORPUSCULAR VOLUME [3]: 62.53 fL | MONOCYTE [3]: 0% | NEUTROPHIL [3]: 17.33% | NUCLEATED RED BLOOD CELLS [3]: 0.33 /100WBC | PLATELET COUNT [3]: 1066.33 x10E3/uL | ALANINE AMINOTRANSFERASE [3]: 34 u/L | ALBUMIN [3]: 3.63 G/DL | ALKALINE PHOSPHATASE [3]: 197 u/L | ASPARTATE AMINOTRANSFERASE [3]: 117.33 u/L | BLOOD UREA NITROGEN [3]: 15 mg/dL | CARBON DIOXIDE [3]: 16 mmol/L | CHLORIDE [3]: 107.67 MEQ/L | CHOLESTEROL [3]: 65.67 mg/dL | CREATINE PHOSPHOKINASE [3]: 1121 u/L | CREATININE [3]: 0.19 mg/dL | LIPASE [3]: 14.33 u/L | POTASSIUM [3]: 7.12 MEQ/L | TOTAL BILIRUBIN [3]: 0.13 mg/dL | TOTAL PROTEIN [3]: 5.2 G/DL | ABSOLUTE BASOPHIL [4]: 0 CELLS/uL | ABSOLUTE EOSINOPHIL [4]: 0 CELLS/uL | ABSOLUTE LYMPHOCYTE [4]: 6405 CELLS/uL | ABSOLUTE MONOCYTE [4]: 112.67 CELLS/uL | BASOPHIL [4]: 0% | EOSINOPHIL [4]: 0% | ERYTHROCYTE COUNT [4]: 6.37 x10E6/uL | HEMATOCRIT [4]: 39.37% | LEUKOCYTE COUNT [4]: 8 x10E3/uL | LYMPHOCYTE [4]: 80% | MEAN CORPUSCULAR HEMOGLOBIN [4]: 24.77 pg | MEAN CORPUSCULAR HEMOGLOBIN CONCENTRATION [4]: 40.07 G/DL | MEAN CORPUSCULAR VOLUME [4]: 61.7 fL | MONOCYTE [4]: 1.33% | NEUTROPHIL [4]: 18.67% | NUCLEATED RED BLOOD CELLS [4]: 0 /100WBC | PLATELET COUNT [4]: 1071 x10E3/uL | ALANINE AMINOTRANSFERASE [4]: 55.67 u/L | ALBUMIN [4]: 3.17 G/DL | ALKALINE PHOSPHATASE [4]: 195.67 u/L | ASPARTATE AMINOTRANSFERASE [4]: 225.67 u/L | BLOOD UREA NITROGEN [4]: 13.33 mg/dL | CARBON DIOXIDE [4]: 20 mmol/L | CHLORIDE [4]: 113.33 MEQ/L | CHOLESTEROL [4]: 88 mg/dL | CREATINE PHOSPHOKINASE [4]: 1322.67 u/L | CREATININE [4]: 0.12 mg/dL | LIPASE [4]: 7.67 u/L | POTASSIUM [4]: 7 MEQ/L | TOTAL BILIRUBIN [4]: 0.2 mg/dL | TOTAL PROTEIN [4]: 4.47 G/DL
